# Assay results taken from PubChem BioAssay AID330 (DTP/NCI, 2004).
# Several values for one entry are separate records, joined by “and”; a condition that tells them apart may be missing. Equal values may be shown once. Inconclusive results and toxic doses are left out.
# Tested on: P388 leukemia ip, CD2F1 mice, survival T/C
# Test: NCI In Vivo Anticancer Drug Screen. Data for tumor model P388 Leukemia (intraperitoneal) in CD2F1 (CDF1) mice
# Details: endpoint: median survival time, higher = longer survival
# Procedure, shortened: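 Mice carrying the transplanted tumor received test compound or vehicle. Survival was recorded in each group, and the value is the treated-group measurement divided by that of the vehicle-treated control group.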
# [1] = dose: 100.0 mg/kg/injection, schedule: Q04DX003 (ip), vehicle: Klucel (hydroxypropylcellulose) (HPC)
# [2] = dose: 200.0 mg/kg/injection, schedule: Q04DX003 (ip), vehicle: Klucel (hydroxypropylcellulose) (HPC)
# [3] = dose: 400.0 mg/kg/injection, schedule: Q04DX003 (ip), vehicle: Klucel (hydroxypropylcellulose) (HPC)
# [4] = dose: 60.0 mg/kg/injection, schedule: Q01DX005 (ip), vehicle: Klucel (hydroxypropylcellulose) (HPC)
# [5] = dose: 120.0 mg/kg/injection, schedule: Q01DX005 (ip), vehicle: Klucel (hydroxypropylcellulose) (HPC)
# [6] = dose: 240.0 mg/kg/injection, schedule: Q01DX005 (ip), vehicle: Klucel (hydroxypropylcellulose) (HPC)
# [7] = dose: 50.0 mg/kg/injection, schedule: Q01DX009 (ip), vehicle: Klucel (hydroxypropylcellulose) (HPC)
# [8] = dose: 100.0 mg/kg/injection, schedule: Q01DX009 (ip), vehicle: Klucel (hydroxypropylcellulose) (HPC)
# [9] = dose: 25.0 mg/kg/injection, schedule: Q01DX009 (ip), vehicle: saline with Tween-80
# [10] = dose: 50.0 mg/kg/injection, schedule: Q01DX009 (ip), vehicle: saline with Tween-80
# [11] = dose: 50.0 mg/kg/injection, schedule: Q01DX005 (ip), vehicle: saline
# [12] = dose: 100.0 mg/kg/injection, schedule: Q01DX005 (ip), vehicle: saline
# [13] = dose: 200.0 mg/kg/injection, schedule: Q01DX005 (ip), vehicle: saline
# [14] = dose: 50.0 mg/kg/injection, schedule: Q01DX005 (ip), vehicle: saline with Tween-80
# [15] = dose: 100.0 mg/kg/injection, schedule: Q01DX005 (ip), vehicle: saline with Tween-80
# [16] = dose: 200.0 mg/kg/injection, schedule: Q01DX005 (ip), vehicle: saline with Tween-80
# [17] = dose: 50.0 mg/kg/injection, schedule: Q04DX003 (ip), vehicle: saline
# [18] = dose: 100.0 mg/kg/injection, schedule: Q04DX003 (ip), vehicle: saline
compound,measurement,setting,value
NC(=O)c1[nH]c(N=Nc2ccc(S(N)(=O)=O)cc2)nc1N,T/C,[1],100 % of control
same,T/C,[2],101 % of control
same,T/C,[3],94 % of control
CCO/C=C(\C)CC1([N+](=O)[O-])C(=O)c2ccccc2C1=O,T/C,[4],107 % of control
same,T/C,[5],107 % of control
same,T/C,[6],117 % of control
CC1(O)c2ccccc2-c2nc3ccccc3nc21 (centres undefined),T/C,"dose: 100.0 mg/kg/injection, schedule: Q04DX003 (ip), vehicle: saline sonified",110 % of control
same,T/C,"dose: 200.0 mg/kg/injection, schedule: Q04DX003 (ip), vehicle: saline sonified",110 % of control
same,T/C,"dose: 400.0 mg/kg/injection, schedule: Q04DX003 (ip), vehicle: saline sonified",100 % of control
CCOC(=O)/C(=C\Nc1cccc(OCc2ccccc2)c1)NC(=O)c1ccccc1,T/C,[7],87 % of control
same,T/C,[8],88 % of control
same,T/C,"dose: 200.0 mg/kg/injection, schedule: Q01DX009 (ip), vehicle: Klucel (hydroxypropylcellulose) (HPC)",86 % of control and 96 % of control
same,T/C,"dose: 400.0 mg/kg/injection, schedule: Q01DX009 (ip), vehicle: Klucel (hydroxypropylcellulose) (HPC)",97 % of control
COc1c2c3c4c5c(c(=O)cc6c5c5c(cc(=O)c(c1O)c35)OCO6)=C(O)[C@@]1(OC)O[C@H](C)C[C@@]41C2,T/C,"dose: 2.5 mg/kg/injection, schedule: Q01DX009 (ip), vehicle: saline with Tween-80",95 % of control
same,T/C,"dose: 5.0 mg/kg/injection, schedule: Q01DX009 (ip), vehicle: saline with Tween-80",95 % of control
same,T/C,"dose: 10.0 mg/kg/injection, schedule: Q01DX009 (ip), vehicle: saline with Tween-80",95 % of control
CNCC(O)CC12CCC(c3ccccc31)c1ccccc12 (centres undefined),T/C,[7],104 % of control
same,T/C,[8],106 % of control
O=C1OC(c2ccccc2)(c2ccccc2)C2CC12c1ccccc1 (centres undefined),T/C,"dose: 100.0 mg/kg/injection, schedule: Q01DX001 (ip), vehicle: Klucel (hydroxypropylcellulose) (HPC)",95 % of control
same,T/C,"dose: 200.0 mg/kg/injection, schedule: Q01DX001 (ip), vehicle: Klucel (hydroxypropylcellulose) (HPC)",95 % of control
same,T/C,"dose: 400.0 mg/kg/injection, schedule: Q01DX001 (ip), vehicle: Klucel (hydroxypropylcellulose) (HPC)",88 % of control
CCN(CC)c1cc(Cl)ccc1Cl,T/C,[9],104 % of control
same,T/C,[10],104 % of control
same,T/C,"dose: 100.0 mg/kg/injection, schedule: Q01DX009 (ip), vehicle: saline with Tween-80",100 % of control
Cn1c2c(c3ccccc3c1=O)C(=O)c1cccnc1-2,T/C,[11],102 % of control
same,T/C,[12],97 % of control
same,T/C,[13],105 % of control
C=C1C(=O)OC2/C=C(\C)CC(O)/C=C(/CO)CC(OC(=O)/C(C)=C/C)C12 (centres undefined),T/C,"dose: 7.5 mg/kg/injection, schedule: Q01DX009 (ip), vehicle: saline + alcohol",111 % of control
same,T/C,"dose: 10.0 mg/kg/injection, schedule: Q01DX009 (ip), vehicle: saline + alcohol",121 % of control
COc1cc2c3c(c1OC)C=C[C@@H]1CCCN(CC2)[C@H]31,T/C,"dose: 7.5 mg/kg/injection, schedule: Q01DX005 (ip), vehicle: Klucel (hydroxypropylcellulose) (HPC)",100 % of control
same,T/C,"dose: 15.0 mg/kg/injection, schedule: Q01DX005 (ip), vehicle: Klucel (hydroxypropylcellulose) (HPC)",98 % of control
same,T/C,"dose: 30.0 mg/kg/injection, schedule: Q01DX005 (ip), vehicle: Klucel (hydroxypropylcellulose) (HPC)",101 % of control
COC(=O)C1=CC(=O)N2CCN=C2S1,T/C,[14],103 % of control
same,T/C,[15],100 % of control
same,T/C,[16],90 % of control
CC1(C)N=C(N)N=C(N)N1c1ccc(OCC(=O)Nc2ccc(S(=O)(=O)F)cc2)c(Cl)c1,T/C,[17],159 % of control
same,T/C,[18],163 % of control and 175 % of control
same,T/C,"dose: 200.0 mg/kg/injection, schedule: Q04DX003 (ip), vehicle: saline",177 % of control and 190 % of control
same,T/C,"dose: 400.0 mg/kg/injection, schedule: Q04DX003 (ip), vehicle: saline",115 % of control
O/N=C/c1cc[n+](CCC[n+]2ccc(/C=N/O)cc2)cc1,T/C,"dose: 5.0 mg/kg/injection, schedule: Q01DX009 (ip), vehicle: saline",100 % of control
same,T/C,"dose: 10.0 mg/kg/injection, schedule: Q01DX009 (ip), vehicle: saline",90 % of control
same,T/C,"dose: 20.0 mg/kg/injection, schedule: Q01DX009 (ip), vehicle: saline",100 % of control
O=c1[nH]c(=O)c2cc([N+](=O)[O-])cc([N+](=O)[O-])c2[nH]1,T/C,[17],118 % of control
same,T/C,[18],89 % of control
CCCCCn1c(CN2CCCCC2)nc2c1-c1ccccc1C(=O)C2=O,T/C,"dose: 50.0 mg/kg/injection, schedule: Q01DX001 (ip), vehicle: saline with Tween-80",100 % of control
same,T/C,"dose: 100.0 mg/kg/injection, schedule: Q01DX001 (ip), vehicle: saline with Tween-80",100 % of control
same,T/C,"dose: 200.0 mg/kg/injection, schedule: Q01DX001 (ip), vehicle: saline with Tween-80",100 % of control
COC1(OC)C(c2ccc([N+](=O)[O-])cc2)C(C#N)(C#N)C1(OC)OC (centres undefined),T/C,[4],100 % of control
same,T/C,[5],97 % of control
same,T/C,[6],99 % of control
O=C/C=C/C=C/C=C/c1ccccc1,T/C,"dose: 60.0 mg/kg/injection, schedule: Q01DX005 (ip), vehicle: distilled water + alcohol",100 % of control
same,T/C,"dose: 120.0 mg/kg/injection, schedule: Q01DX005 (ip), vehicle: distilled water + alcohol",100 % of control
same,T/C,"dose: 240.0 mg/kg/injection, schedule: Q01DX005 (ip), vehicle: distilled water + alcohol",96 % of control
O=S1(=O)CS(=O)(=O)OCCCO1,T/C,"dose: 6.25 mg/kg/injection, schedule: Q01DX005 (ip), vehicle: Klucel (hydroxypropylcellulose) (HPC)",151 % of control
same,T/C,"dose: 12.5 mg/kg/injection, schedule: Q01DX005 (ip), vehicle: Klucel (hydroxypropylcellulose) (HPC)",169 % of control
CNC(C)C(O)c1ccc(O)cc1 (centres undefined),T/C,"dose: 50.0 mg/kg/injection, schedule: Q01DX009 (ip), vehicle: saline",102 % of control and 92 % of control
same,T/C,"dose: 100.0 mg/kg/injection, schedule: Q01DX009 (ip), vehicle: saline",102 % of control and 105 % of control
same,T/C,"dose: 200.0 mg/kg/injection, schedule: Q01DX009 (ip), vehicle: saline",102 % of control and 108 % of control
same,T/C,"dose: 400.0 mg/kg/injection, schedule: Q01DX009 (ip), vehicle: saline",102 % of control and 98 % of control
CSC(=S)c1c(C)cccc1C,T/C,"dose: 100.0 mg/kg/injection, schedule: Q04DX003 (ip), vehicle: saline with Tween-80",110 % of control
same,T/C,"dose: 200.0 mg/kg/injection, schedule: Q04DX003 (ip), vehicle: saline with Tween-80",100 % of control
same,T/C,"dose: 400.0 mg/kg/injection, schedule: Q04DX003 (ip), vehicle: saline with Tween-80",113 % of control
NC(CCC(=O)O)C(=O)NC(Cc1c[nH]c2ccccc12)C(=O)O (centres undefined),T/C,[14],103 % of control
same,T/C,[15],96 % of control
same,T/C,[16],105 % of control
C=CCSc1nc2ccc(N=Cc3ccccc3O)cc2s1,T/C,[1],88 % of control
same,T/C,[2],91 % of control
same,T/C,[3],92 % of control
COC(=O)C1C(NC(C)(C)C)CCN1C(C)=O (centres undefined),T/C,[11],89 % of control
same,T/C,[12],88 % of control
same,T/C,[13],89 % of control
Cc1[nH]ccc2c(C)c3nc4ccccc4c3cc12,T/C,"dose: 6.25 mg/kg/injection, schedule: Q04DX002 (ip), vehicle: water",108 % of control
same,T/C,"dose: 12.5 mg/kg/injection, schedule: Q04DX002 (ip), vehicle: water",121 % of control
same,T/C,[9],163 % of control
same,T/C,"dose: 25.0 mg/kg/injection, schedule: Q04DX002 (ip), vehicle: water",123 % of control
same,T/C,[10],113 % of control
same,T/C,"dose: 100.0 mg/kg/injection, schedule: Q04DX002 (ip), vehicle: water",153 % of control
same,T/C,"dose: 160.0 mg/kg/injection, schedule: Q04DX002 (ip), vehicle: distilled water + Tween-80",157 % of control
same,T/C,"dose: 200.0 mg/kg/injection, schedule: Q04DX002 (ip), vehicle: water",166 % of control
same,T/C,"dose: 320.0 mg/kg/injection, schedule: Q04DX002 (ip), vehicle: distilled water + Tween-80",188 % of control
CCCCCCCCC(O)C#CC(O)CCCCCCCC (centres undefined),T/C,"dose: 12.5 mg/kg/injection, schedule: Q01DX005 (ip), vehicle: saline with Tween-80",92 % of control
same,T/C,"dose: 25.0 mg/kg/injection, schedule: Q01DX005 (ip), vehicle: saline with Tween-80",90 % of control
same,T/C,[14],101 % of control and 91 % of control
same,T/C,[15],100 % of control
